Structures are written as SMILES. Several values for one entry are separate records, joined by “and”; a condition that tells them apart may be missing. Identical values can stand only once.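 Interpolation was linear, between the two tested concentrations surrounding the appropriate level; five concentrations were tested over 48 hours in 96-well plates. GI50 = concentration required for 50% inhibition of growth. TGI: concentration producing complete growth inhibition.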

One test relates to SW-620 colon. Put plainly: growth of human tumour cells (NCI), 48 h.
In turn, `CC1(c2ccccc2)CC(c2ccccc2)=NO1` (stereo unspecified) had a TGI of more than 100 µM.

For `COc1cccc(/C=C2\CCC(C)(CN(C)C)C2=O)c1` (stereo unspecified), the TGI is more than 100 µM.

On to `CCN(CC)CCNC(=O)c1cn2ncnc(Oc3ccc(NC(=O)Nc4ccc(Cl)c(C(F)(F)F)c4)c(F)c3)c2c1C`, for which the GI50 was 1.91 µM and the TGI came out at 3.5 µM.

As for `Cl[Si]1(Cl)Oc2ccccc2O[Si](Cl)(Cl)Oc2ccccc2O1`, the TGI was 54.5 µM.

In turn, `OC(c1ccc(Br)cc1)(c1cccs1)C1CC1` (stereo unspecified) returned a TGI of 87.5 µM.

As for `C[n+]1c2ccccc2cc2c(CNC(CCCN=C(N)N)C(=O)O)cccc21` (stereo unspecified), the TGI came out at 1.78 µM.

`Cc1cc2c(Br)cc(Br)c(O)c2nc1C(=O)c1ccccc1`: the TGI was more than 100 µM.

For `Cn1cc(-c2csc(-c3cn(C)c4ccccc34)n2)c2cnccc21`, the GI50 was 1.85 µM and the TGI was 3.63 µM.

Regarding `COc1ccccc1/C=C/C(=O)/C=C/c1ccccc1O`, the GI50 was 0.392 µM and the TGI stood at 1.47 µM.

For the molecule `CC(=O)[O-].CC(=O)[O-].CC(=O)[O-].CC(=O)[O-].[Mo+2].[Mo+2]`, the GI50 is more than 100 µM and the TGI is more than 100 µM.

In turn, `COc1ccc(Nc2nc3ccccc3nc2-c2cccs2)cc1` gave a TGI of more than 100 µM.

In turn, `C#CCC(N)(CO)C(=O)O` (stereo unspecified) came in with a TGI of more than 100 µM.

`O=C(O)CCC(NC(=S)S)C(=O)O.[Na+].[Zn+2]` (stereo unspecified): the GI50 is more than 50 µM and the TGI is more than 50 µM.

Molecule `Cc1cn(C2OC(C)(CO)C(O)C2O)c(=O)[nH]c1=O` (stereo unspecified) displayed a TGI of more than 100 µM.

For the molecule `C[C@H](Cn1ncnn1)Nc1ncc2cc(Oc3ccc(F)cc3F)c(=O)n(C)c2n1`, the GI50 is more than 25 µM and the TGI is more than 25 µM.

The molecule `CCCCCCCCCCCCCC(=O)OCC1OC(=O)CC1O` (stereo unspecified) came in with a TGI of more than 100 µM.

`N=S(c1ccccc1)c1ccccc1[N+](=O)[O-]` (stereo unspecified) yielded a TGI of 31.4 µM.

As for `CCCCCCCCCCCCCCCCCCNC(=O)[C@H]1CSC(c2cccs2)N1` (stereo partly specified), the GI50 was 0.881 µM and the TGI was found to be 1.91 µM.

As for `Cn1c2ccccc2c2c(=O)c3ccccc3[nH]c21`, the GI50 is 40.7 µM and the TGI is more than 100 µM.

For the next test, the system named is OVCAR-3 ovarian. In words: growth of human tumour cells (NCI), 48 h.
For the molecule `CC1(c2ccccc2)CC(c2ccccc2)=NO1` (stereo unspecified), the TGI is more than 100 µM.

On to `COc1cccc(/C=C2\CCC(C)(CN(C)C)C2=O)c1` (stereo unspecified), for which the TGI was more than 100 µM.

For `CCN(CC)CCNC(=O)c1cn2ncnc(Oc3ccc(NC(=O)Nc4ccc(Cl)c(C(F)(F)F)c4)c(F)c3)c2c1C`, the GI50 is 1.77 µM and the TGI turned out to be 3.21 µM.

With `Cl[Si]1(Cl)Oc2ccccc2O[Si](Cl)(Cl)Oc2ccccc2O1`, the TGI is more than 100 µM.

As for `OC(c1ccc(Br)cc1)(c1cccs1)C1CC1` (stereo unspecified), the TGI is 35.9 µM.

For the molecule `COc1ccc(-c2nnc(N3CCN(C(=O)CN4CCN(c5ccc(OC)cc5)CC4)CC3)nc2-c2ccc(OC)cc2)cc1`, the GI50 is 2.1 µM and the TGI turned out to be 4 µM.

As to `C[n+]1c2ccccc2cc2c(CNC(CCCN=C(N)N)C(=O)O)cccc21` (stereo unspecified), the GI50 was 1.57 µM; the TGI was 6.36 µM and 4.58 µM.

Turning to `Cc1cc2c(Br)cc(Br)c(O)c2nc1C(=O)c1ccccc1`, the TGI is more than 79 µM.

As to `Cn1cc(-c2csc(-c3cn(C)c4ccccc34)n2)c2cnccc21`, the GI50 was 2.16 µM and the TGI was 4.13 µM.

As for `COc1ccccc1/C=C/C(=O)/C=C/c1ccccc1O`, the GI50 was 0.314 µM and the TGI is 1 µM.

Take `CC(=O)[O-].CC(=O)[O-].CC(=O)[O-].CC(=O)[O-].[Mo+2].[Mo+2]`: the GI50 is more than 100 µM and the TGI was more than 100 µM.

Regarding `COc1ccc(Nc2nc3ccccc3nc2-c2cccs2)cc1`, the TGI is more than 100 µM.

Regarding `CC(CC(=O)Nc1ccc(NC(=O)CC(C)N=NC(N)=S)cc1)N=NC(N)=S` (stereo unspecified), the TGI was more than 100 µM.

As for `C#CCC(N)(CO)C(=O)O` (stereo unspecified), the TGI is more than 100 µM.

With `O=C(O)CCC(NC(=S)S)C(=O)O.[Na+].[Zn+2]` (stereo unspecified), the GI50 is more than 50 µM and the TGI is more than 50 µM.

Consider `Cc1cn(C2OC(C)(CO)C(O)C2O)c(=O)[nH]c1=O` (stereo unspecified), for which the TGI was more than 100 µM.

In the case of `C[C@H](Cn1ncnn1)Nc1ncc2cc(Oc3ccc(F)cc3F)c(=O)n(C)c2n1`, the GI50 is more than 25 µM and the TGI was more than 25 µM.

For `CCCCCCCCCCCCCC(=O)OCC1OC(=O)CC1O` (stereo unspecified), the TGI was more than 100 µM.

The molecule `N=S(c1ccccc1)c1ccccc1[N+](=O)[O-]` (stereo unspecified) had a TGI of 23.2 µM.

As to `CCCCCCCCCCCCCCCCCCNC(=O)[C@H]1CSC(c2cccs2)N1` (stereo partly specified), the GI50 is 1.48 µM and the TGI came out at 3.97 µM.

For `Cn1c2ccccc2c2c(=O)c3ccccc3[nH]c21`, the GI50 is more than 100 µM and the TGI was more than 100 µM.

For the next test, the system named is M14 melanoma. In words: growth of human tumour cells (NCI), 48 h.
Turning to `CC1(c2ccccc2)CC(c2ccccc2)=NO1` (stereo unspecified), the TGI is more than 100 µM.

With `COc1cccc(/C=C2\CCC(C)(CN(C)C)C2=O)c1` (stereo unspecified), the TGI was more than 100 µM.

As for `CCN(CC)CCNC(=O)c1cn2ncnc(Oc3ccc(NC(=O)Nc4ccc(Cl)c(C(F)(F)F)c4)c(F)c3)c2c1C`, the GI50 is 1.58 µM and the TGI amounted to 3.24 µM.

`Cl[Si]1(Cl)Oc2ccccc2O[Si](Cl)(Cl)Oc2ccccc2O1`: the TGI was found to be 34.3 µM.

In the case of `OC(c1ccc(Br)cc1)(c1cccs1)C1CC1` (stereo unspecified), the TGI is 45.3 µM.

Consider `COc1ccc(-c2nnc(N3CCN(C(=O)CN4CCN(c5ccc(OC)cc5)CC4)CC3)nc2-c2ccc(OC)cc2)cc1`, for which the GI50 was 2.6 µM and the TGI turned out to be 6.28 µM.

`C[n+]1c2ccccc2cc2c(CNC(CCCN=C(N)N)C(=O)O)cccc21` (stereo unspecified): the GI50 is 2.86 µM and the TGI is 15.1 µM.

The molecule `Cc1cc2c(Br)cc(Br)c(O)c2nc1C(=O)c1ccccc1` returned a TGI of more than 60.2 µM.

As for `Cn1cc(-c2csc(-c3cn(C)c4ccccc34)n2)c2cnccc21`, the GI50 was 1.51 µM and the TGI was found to be 2.96 µM.

(Values after PubChem BioAssay (NCI).)
